Reference: US20190343922A1, “HISTATIN FOR CORNEAL WOUND HEALING AND OCULAR SURFACE DISEASE” (Rapid Pathogen Screening, Inc., priority 2012, published 2019)

Columns and labels:
[1] = test system: rabbit corneas; details: in vivo
Description: (§1) The corneal wounds are then evaluated daily for the corneal wound healing abilities of histatin via fluorescein staining, fluorescent slit lamp biomicrophotography and computerized area determination. Evaluators are masked to the therapeutic treatment given to the rabbits. After healing, two (2) animals from each group are euthanized, and the corneas collected for histological processing (H&E staining with subsequent evaluation by veterinary histopathologist). The decision to perform histopathologic analysis after tissue procurement is made only if there is proven difference in healing between the different treatment groups and the controls. At study termination (study preferably continues for seven days), the remaining animals are euthanized.
The histatin used in this study was cyclized histatin 1.

[2] = test system: corneal wounds; experiment: Corneal epithelial defect wound healing in rabbits (fluorescein staining, computerized area determination); type: in vivo, New Zealand White rabbits
Description: The study disclosed herein evaluates and quantifies the wound healing effects of histatins on the ocular surface of New Zealand White rabbits.
Epithelial defects are created in the right eye (oculus dexter, OD) of 12 New Zealand White rabbits. Due to animal regulations, bilateral wounding is not permitted. After the epithelial defects are made, the rabbits are randomized into treatment groups. Two (2) groups are treated with different cyclized histatin concentrations: 0.1 μg/ml and 10 μg/ml dissolved into an ophthalmic artificial tear preparation and delivered to the rabbits as an eye drop three times daily. Histatins known in the art, including, but not limited to, amino acid SEQ ID NOS: 1 through 33, which include Hst-1 (SEQ ID NO: 4), Hst-2 (SEQ ID NO: 5), Hst-3 (SEQ ID NO: 6), Hst-5 (SEQ ID NO: 30), and sortase cyclized histatin (SEQ ID NO: 33), may be used in these studies or in treatment protocols. […] This control group should receive the same vehicle identical to the other two groups but without histatin. An over-the-counter artificial tear preferably serves as the vehicle. The initial study included four (4) animals/group in three (3) groups, for a total of twelve rabbits.
Each rabbit group is preferably given moxifloxicin treatment to prevent infection.
as §1

Substance: cyclo(DNLPETGGDSHEKRHHGYRRKFHEKHHSHREFPFYGDYGSNYLY) [cyclized histatin 1]
- Toxicity on pathological analysis of corneas [1]: no toxicity
- Corneal wound size ([2]; 0.1 μg/ml eye drop three times daily, 54 hours post wound): 0.00 ± 0.00 mm^2
- Corneal wound size ([2]; 0.1 μg/ml eye drop three times daily, 72 hours post wound): 0.00 ± 0.00 mm^2
- Percentage of 1 hour post wound size ([2]; 0.1 ug/ml, 0 hours post wound): 100%
- Percentage of 1 hour post wound size ([2]; 0.1 ug/ml, 6 hours post wound): 85%
- Percentage of 1 hour post wound size ([2]; 0.1 ug/ml, 24 hours post wound): 69%
- Percentage of 1 hour post wound size ([2]; 0.1 ug/ml, 30 hours post wound): 43%
- Percentage of 1 hour post wound size ([2]; 0.1 ug/ml, 48 hours post wound): 2%
- Percentage of 1 hour post wound size ([2]; 0.1 ug/ml, 54 hours post wound): 0%
- Percentage of 1 hour post wound size ([2]; 0.1 ug/ml, 72 hours post wound): 0%
- Corneal wound size ([2]; 10 μg/ml eye drop three times daily, 48 hours post wound): 0.00 ± 0.07 mm^2
- Corneal wound size ([2]; 10 μg/ml eye drop three times daily, 54 hours post wound): 0.00 ± 0.00 mm^2
- Corneal wound size ([2]; 10 μg/ml eye drop three times daily, 72 hours post wound): 0.00 ± 0.00 mm^2
- Percentage of 1 hour post wound size ([2]; 10 ug/ml, 0 hours post wound): 100%
- Percentage of 1 hour post wound size ([2]; 10 ug/ml, 6 hours post wound): 84%
- Percentage of 1 hour post wound size ([2]; 10 ug/ml, 24 hours post wound): 58%
- Percentage of 1 hour post wound size ([2]; 10 ug/ml, 30 hours post wound): 43%
- Percentage of 1 hour post wound size ([2]; 10 ug/ml, 48 hours post wound): 0%
- Percentage of 1 hour post wound size ([2]; 10 ug/ml, 54 hours post wound): 0%
- Percentage of 1 hour post wound size ([2]; 10 ug/ml, 72 hours post wound): 0%
- Healing activity of corneal wounds ([2]; 0.1 and 10 μg/ml vs control, rabbits): significant dose dependent accelerated healing activity
- Wound healing speed compared with control at each time point ([2]; wounds treated with 0.1 μg/ml or 10 μg/ml): healed faster
